From ChEMBL document CHEMBL1132893, “The design and synthesis of potent cyclic peptide VCAM-VLA-4 antagonists incorporating an achiral Asp-Pro mimetic” (Bioorg Med Chem Lett, 2000)

Columns and labels:
Integrin alpha-4 [1] = molecular target: T1, Integrin alpha-4 (Homo sapiens, UniProt P13612); test: Inhibition of VLA-4 binding to recombinant human VCAM using Solid phase assay
T1 sequence (P13612 whole entry): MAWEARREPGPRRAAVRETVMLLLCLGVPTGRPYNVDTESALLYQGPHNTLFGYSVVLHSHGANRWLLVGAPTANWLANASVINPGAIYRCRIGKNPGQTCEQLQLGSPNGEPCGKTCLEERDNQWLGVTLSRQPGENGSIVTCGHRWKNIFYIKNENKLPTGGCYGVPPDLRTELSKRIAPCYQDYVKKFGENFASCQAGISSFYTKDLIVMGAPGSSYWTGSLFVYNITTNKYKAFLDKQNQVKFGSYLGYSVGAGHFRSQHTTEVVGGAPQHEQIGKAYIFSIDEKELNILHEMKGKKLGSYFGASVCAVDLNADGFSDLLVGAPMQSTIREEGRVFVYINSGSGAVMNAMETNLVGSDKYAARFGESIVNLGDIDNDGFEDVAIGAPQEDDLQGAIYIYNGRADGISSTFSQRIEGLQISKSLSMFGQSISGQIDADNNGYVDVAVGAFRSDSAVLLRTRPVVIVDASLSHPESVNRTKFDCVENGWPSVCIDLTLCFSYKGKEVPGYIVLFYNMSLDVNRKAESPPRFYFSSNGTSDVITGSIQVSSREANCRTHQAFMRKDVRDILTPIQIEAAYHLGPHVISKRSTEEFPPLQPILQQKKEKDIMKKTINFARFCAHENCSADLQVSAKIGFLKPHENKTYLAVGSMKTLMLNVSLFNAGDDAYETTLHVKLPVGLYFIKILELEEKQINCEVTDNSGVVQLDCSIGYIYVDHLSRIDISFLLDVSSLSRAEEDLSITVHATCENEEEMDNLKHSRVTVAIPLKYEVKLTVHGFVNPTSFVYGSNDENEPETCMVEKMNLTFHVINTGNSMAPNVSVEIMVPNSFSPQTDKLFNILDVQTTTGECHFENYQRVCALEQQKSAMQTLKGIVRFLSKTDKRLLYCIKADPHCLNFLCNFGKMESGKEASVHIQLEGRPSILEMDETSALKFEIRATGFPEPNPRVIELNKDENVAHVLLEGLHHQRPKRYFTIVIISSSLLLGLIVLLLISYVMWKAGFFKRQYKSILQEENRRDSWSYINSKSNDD

Integrin alpha-4 [2] = molecular target: T1, Integrin alpha-4; test: Inhibition of VLA-4 binding to recombinant human VCAM using Ramos cell assay; format: cell-based

SMILES	IC50 (Integrin alpha-4 [1])	IC50 (Integrin alpha-4 [2])
CC(=O)N[C@@H](Cc1ccc(O)cc1)C(=O)N[C@H]1CSSC[C@@H](C(=O)O)NC(=O)C2(CCCC2)CCNC1=O	0.7 nM	12 nM
N[C@@H](Cc1ccc(O)cc1)C(=O)N[C@H]1CSSC[C@@H](C(=O)O)NC(=O)C2(CCCC2)CNC1=O	5 nM	–
CC1(C)CCNC(=O)[C@@H](NC(=O)[C@@H](N)Cc2ccc(O)cc2)CSSC[C@@H](C(=O)O)NC1=O	112 nM	–
N[C@@H](Cc1ccc(O)cc1)C(=O)N[C@H]1CSSC[C@@H](C(=O)O)NC(=O)C2(CCCC2)CCCNC1=O	19 nM	480 nM
CCC1(CC)CCNC(=O)[C@@H](NC(=O)[C@@H](N)Cc2ccc(O)cc2)CSSC[C@@H](C(=O)O)NC1=O	3.9 nM	–
N[C@@H](Cc1ccc(O)cc1)C(=O)N[C@H]1CSSC[C@@H](C(=O)O)NC(=O)C2(CCCC2)CCNC1=O	–	24 nM
